Measurements taken from ChEMBL document CHEMBL1151984, “Dietary derived sesquiterpenes from Phyllodesmium lizardensis” (J Nat Prod, 2009).
Active and inactive are the calls of the source.

Assays:
Assay type in all cases: functional, organism-based
Microbotryum violaceum = assay: […] activity against Microbotryum violaceum at 50 ug/disk
Escherichia coli = assay: Antibacterial activity against Escherichia coli at 50 ug/disk
Aspergillus ruber = assay: Antifungal activity against Eurotium rubrum at 50 ug/disk
Mycotypha microspora = assay: Antifungal activity against Mycotypha microspora at 50 ug/disk
Priestia megaterium = assay: Antibacterial activity against Bacillus megaterium at 50 ug/disk

Measured: Activity

CC1=C[C@@H]2[C@@H](C(C)C)CC=C(C)[C@@H]2C[C@H]1O
inactive: Microbotryum violaceum | Escherichia coli | Aspergillus ruber | Mycotypha microspora | Priestia megaterium

CC(=O)O[C@@H]1C[C@H]2C(C)=CC[C@H](C(C)C)[C@H]2C=C1C
inactive: Microbotryum violaceum | Escherichia coli | Aspergillus ruber | Mycotypha microspora | Priestia megaterium
